Here are results for 33 compounds from patent US20250154163A1, “Pyrimidinone-Containing 17-Beta-Hydroxysteroid Dehydrogenase Type 13 Inhibitors” (ENANTA PHARMACEUTICALS, INC., priority 2023, published 2025).

The structures appear in SMILES notation.

This assay has as its target T1, human HSD17β13 (stable HEK293T cell line overexpressing human HSD17β13) (Homo sapiens, UniProt Q7Z5P4).
T1 construct: expressed in transfected cells
T1 sequence (Q7Z5P4 20-300): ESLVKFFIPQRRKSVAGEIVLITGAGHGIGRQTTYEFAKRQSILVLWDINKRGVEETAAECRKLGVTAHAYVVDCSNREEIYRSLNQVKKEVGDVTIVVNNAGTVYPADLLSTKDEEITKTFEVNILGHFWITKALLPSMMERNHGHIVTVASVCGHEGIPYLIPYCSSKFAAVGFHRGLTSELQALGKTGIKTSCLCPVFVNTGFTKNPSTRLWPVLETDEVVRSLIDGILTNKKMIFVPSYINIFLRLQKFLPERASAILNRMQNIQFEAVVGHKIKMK
The experiment in a line: HSD17β13 inhibitor cell-based screening assay (conversion of estradiol-d2 to estrone-d2 by RF-MS). Particulars: conversion of estradiol-d2 to estrone-d2 after 24 hours. The procedure: The purpose of this cell-based assay is to determine the cellular efficacy (IC50) of HSD17β13 inhibitors in a stable HEK293 T cell line overexpressing human HSD17β13. The assay measures by Rapid Fire mass-spectrometry (RF-MS) the conversion of estradiol-d2 to estrone-d2. Cytotoxicity was also assessed via luminescent signal generated by the ATPlite viability assay reagent. To screen compounds for HSD17013 inhibition, black 384-well plates were seeded with 1000× concentration of compounds in a 9-point 1:3 dilution curve (final top concentration of 10 μM) as well as 1000× concentration of 17β-estradiol-d2 (5 μM final concentration) added to all wells. HEK293T cells stably overexpressing human HSD17013 and the parent HEK293T cell lines were then seeded in the plates on top of the compounds and substrate in MEM media containing 1% charcoal/dextran-treated FBS. Supernatant is collected and immediately frozen after 24 hours of incubation, and conversion of estradiol-d2 to estrone-d2 is measured at Pure Honey by RF-MS. The remaining media in the plate was removed from the wells and replaced with ATPlite viability assay reagent. Luminescent signal from the ATPlite reagent was measured on the Envision plate reader. 10 μL of 10 mM compounds stocks (1000×) dissolved in DMSO were pipetted into the appropriate wells on the 384 LDV plate (Labcyte; cat. no.: LP-0200) and the appropriate volumes of DMSO solvent were included onto an intermediate plate to further dilute the compound stocks to complete the 9-pt dose curve (final top concentration of 10 μM). 10 μL per well of 5 mM estradiol-d2 (1000×) (Cayman; item no.: 9002846) (5 μM final concentration) dissolved in DMSO was seeded into the appropriate number of wells on the same source plate as the compounds. The Echo 650 (Labcyte) was used for compound dilutions and dispensing both the compounds and the substrate onto a dry 384-well black assay plate (Falcon/Corning; cat. no.:353962). Afterwards, cells were immediately counted and seeded onto the plate. Cells were cultured for expansion in EMEM (ATCC; cat. no.: 30-2003)+10% FBS (Hyclone; cat. no.: SH3007003)+1×PenStrep (Gibco; cat. no.: 15140-122). All media for stable cell line overexpressing HSD17013 also included […] zeocin (Invitrogen; cat. no.: 46-0509) for selection. To prepare cells for seeding into the 384-well assay plate, cells were trypsinized for 3 minutes in the incubator. The Trypsin-EDTA (0.25%) (Gibco; cat. no.: 25200056) was neutralized with EMEM complete culture medium warmed to 37° C. Cells were then centrifugated at 300×g for 5 minutes at room temperature. The cell pellet was resuspended in phenol red-free MEM (Gibco; cat. no.: 51200-038)+1% charcoal/dextran-treated FBS (Hyclone; cat. no.: SH3006803) and 1×PenStrep warmed to 37° C. Cells were then counted using the TC20 automated cell-counter (Bio-Rad) and disposable duel chamber counting slides (Bio-Rad; cat. no.: 1450016) for a cell density of 1.5E5 cells/mL to then seed into the assay plate at 7.5E3 cells/well with 50 μL of media per well. Prior to the 24-hour time point, a solution of 1% formic acid (10×) (Honeywell; cat. no.: 94318) in MEM phenol red-free MEM+1% charcoal/dextran-treated FBS and 1×PenStrep was made. ATPlite luminescent ATP detection reagent (PerkinElmer; cat. no.: 6016739) was prepared according to the manufacturer's instructions. A new 384-well Falcon plate (collection plate) was seeded with 2 μL per well of 10× formic acid and then 18 μL of cell supernatant was added onto the formic acid, resulting in a 20 μL per well solution of 0.1% formic acid (1×) in supernatant. The plate of collected supernatant was immediately frozen on dry ice before being stored at −80° C. The collection plate was shipped to Momentum Biotechnologies for analysis. The remaining supernatant in the assay plate was discarded and 25 μL of ATPlite reagent was added to each well. […]
One may read the IC50 as the concentration needed to halve the response being measured. Read a high IC50 as weaker potency in that assay. `COc1ccc(-c2nc3sc4c(O)c(Cl)ccc4c3c(=O)n2Cc2nncs2)c(C2CC2)c1` [Example 202] gave an IC50 of less than 100 nM.

Compound `Cc1ncc(Cn2c(-c3cc(F)c(F)cc3C3CC3)nc3sc4c(O)c(Cl)ccc4c3c2=O)o1` [Example 61, 7-chloro-2-(2-cyclopropyl-4,5-difluorophenyl)-8-hydroxy-3-((2-methyloxazol-5-yl)methyl)benzo[4,5]thieno[2,3-d]pyrimidin-4(3H)-one] yielded an IC50 of less than 100 nM.

Consider `O=c1c2c(nc(-c3ncc(F)cc3C3CC3)n1Cc1cnc(C(F)(F)F)nc1)sc1c(O)c(Cl)ccc12` [Example 101], for which the IC50 is less than 100 nM.

Regarding `COc1ccc(-c2nc3sc4c(O)c(F)ccc4c3c(=O)n2Cc2cnco2)c(C2CC2)c1` [Example 56, 2-(2-cyclopropyl-4-methoxyphenyl)-7-fluoro-8-hydroxy-3-(oxazol-5-ylmethyl)benzo[4,5]thieno[2,3-d]pyrimidin-4(3H)-one], the IC50 was less than 100 nM.

On to `COc1ccc(-c2nc3sc4c(O)c(Cl)ccc4c3c(=O)n2Cc2cnn(C(F)(F)F)c2)c(C2CC2)c1` [Example 201], for which the IC50 is less than 100 nM.

As for `COc1ccc(-c2nc3sc4c(O)c(Cl)ccc4c3c(=O)n2Cc2ccc(C(F)(F)F)nc2)c(C2CC2)c1` [Example 153], the concentration for half-maximal inhibition (IC50) is less than 100 nM.

Compound `COc1ccc(-c2nc3sc4c(O)c(Cl)ccc4c3c(=O)n2CCCc2cnco2)c(C2CC2)c1` [Example 189] had an IC50 of less than 100 nM.

Consider `COc1ccc(-c2nc3sc4c(O)c(Cl)ccc4c3c(=O)n2Cc2cnc(C)nc2)c(C2CC2)c1` [Example 58, 7-chloro-2-(2-cyclopropyl-4-methoxyphenyl)-8-hydroxy-3-((2-methylpyrimidin-5-yl)methyl)benzo[4,5]thieno[2,3-d]pyrimidin-4(3H)-one], for which the IC50 was less than 100 nM.

`COc1cc(C2CC2)c(-c2nc3sc4c(O)c(Cl)ccc4c3c(=O)n2Cc2cnco2)cc1Br` [Example 104, 2-(5-bromo-2-cyclopropyl-4-methoxyphenyl)-7-chloro-8-hydroxy-3-(oxazol-5-ylmethyl)benzo[4,5]thieno[2,3-d]pyrimidin-4(3H)-one] came in with an IC50 of less than 100 nM.

In turn, `O=c1c2c(nc(-c3cc(F)c(F)cc3C3CC3)n1Cc1cn[nH]n1)sc1c(O)c(Cl)ccc12` [Example 214] registered an IC50 of less than 100 nM.

In the case of `COc1ccc(Cn2c(-c3cc(F)c(F)cc3C3CC3)nc3sc4c(O)c(Cl)ccc4c3c2=O)cn1` [Example 168], the IC50 was less than 100 nM.

Compound `O=c1c2c(nc(-c3ncc(Cl)cc3C3CC3)n1Cc1cc(C(F)(F)F)no1)sc1c(O)c(Cl)ccc12` [Example 103] showed an IC50 of less than 100 nM.

The compound `COc1ccc(-c2nc3sc4c(O)c(Cl)ccc4c3c(=O)n2CCc2cnco2)c(C2CC2)c1` [Example 188, 7-chloro-2-(2-cyclopropyl-4-methoxyphenyl)-8-hydroxy-3-(2-(oxazol-5-yl)ethyl)benzo[4,5]thieno[2,3-d]pyrimidin-4(3H)-one] yielded an IC50 of 100 to 500 nM.

Take `Cc1cc(Cn2c(-c3cc(F)c(F)cc3C3CC3)nc3sc4c(O)c(Cl)ccc4c3c2=O)on1` [Example 60, 7-chloro-2-(2-cyclopropyl-4,5-difluorophenyl)-8-hydroxy-3-((3-methylisoxazol-5-yl)methyl)benzo[4,5]thieno[2,3-d]pyrimidin-4(3H)-one]: the IC50 is less than 100 nM.

The compound `O=c1c2c(nc(-c3cc(F)c(F)cc3C3CC3)n1Cc1ccc(C(F)(F)F)nc1)sc1c(O)c(Cl)ccc12` [Example 162] returned a half-inhibitory concentration (IC50) of less than 100 nM.

`N#Cc1ccc(-c2nc3sc4c(O)c(Cl)ccc4c3c(=O)n2Cc2cccnc2)c(C2CC2)c1` [Example 170] gave an IC50 of less than 100 nM.

Compound `O=c1c2c(nc(-c3cccc(C(F)(F)F)c3C3CC3)n1Cc1cnco1)sc1c(O)c(Cl)ccc12` [Example 139] displayed a half-inhibitory concentration (IC50) of less than 100 nM.

`COc1ccc(-c2nc3sc4c(O)c(Cl)ccc4c3c(=O)n2Cc2ccncc2)c(C2CC2)c1` [Example 151] had an IC50 of less than 100 nM.

As to `COc1ccc(C2=Nc3sc4c(O)c(Cl)ccc4c3C(=O)C2Cc2cc[nH]c(=O)c2)c(C2CC2)c1` (stereo not drawn) [Example 157], the IC50 lay within 100 to 500 nM.

In turn, `COc1ccc(-c2nc3sc4c(O)c(Cl)ccc4c3c(=O)n2Cc2ncc(C)o2)c(C2CC2)c1` [Example 200, 7-chloro-2-(2-cyclopropyl-4-methoxyphenyl)-8-hydroxy-3-((5-methyloxazol-2-yl)methyl)benzo[4,5]thieno[2,3-d]pyrimidin-4(3H)-one] came in with a concentration for half-maximal inhibition (IC50) of less than 100 nM.

As to `COc1ccc(C2=Nc3sc4c(O)c(Cl)ccc4c3C(=O)C2Cc2ccc(=O)[nH]c2)c(C2CC2)c1` (stereo not drawn) [Example 161], the IC50 is less than 100 nM.

`CS(=O)(=O)c1ccc(-c2nc3sc4c(O)c(Cl)ccc4c3c(=O)n2Cc2cccnc2)c(C2CC2)c1` [Example 166] had an IC50 of less than 100 nM.

The compound `C#CCn1c(-c2ccc(OC)cc2C2CC2)nc2sc3c(O)c(Cl)ccc3c2c1=O` [Example 126] gave an IC50 of 100 to 500 nM.

`O=c1c2c(nc(-c3cnc(C(F)(F)F)cc3C3CC3)n1Cc1cnc(C(F)(F)F)nc1)sc1c(O)c(Cl)ccc12` [Example 178] displayed an IC50 of less than 100 nM.

With `O=c1c2c(nc(-c3ccc4cc[nH]c4c3C3CC3)n1Cc1cnco1)sc1c(O)c(Cl)ccc12` [Example 140], the IC50 was less than 100 nM.

The compound `O=c1c2c(nc(-c3ccc(C(F)(F)F)nc3C3CC3)n1Cc1ccc(C(F)(F)F)nc1)sc1c(O)c(Cl)ccc12` [Example 68, 7-chloro-2-(2-cyclopropyl-6-(trifluoromethyl)pyridin-3-yl)-8-hydroxy-3-((6-(trifluoromethyl)pyridin-3-yl)methyl)benzo[4,5]thieno[2,3-d]pyrimidin-4(3H)-one] had an IC50 of less than 100 nM.

`O=c1c2c(nc(-c3cc(F)c(F)cc3C3CC3)n1Cc1ccns1)sc1c(O)c(Cl)ccc12` [Example 212]: the IC50 is less than 100 nM.

Take `CCn1c(=O)c(C)cn(CCCn2c(-c3ccc(OC)cc3C3CC3)nc3sc4c(O)c(Cl)ccc4c3c2=O)c1=O` [Example 127]: the IC50 is less than 100 nM.

`N#Cc1ncc(Cn2c(-c3cc(F)c(F)cc3C3CC3)nc3sc4c(O)c(Cl)ccc4c3c2=O)s1` [Example 210] showed an IC50 of less than 100 nM.

`O=c1c2c(nc(-c3cc(F)c(F)cc3C3CC3)n1Cc1nnc(C(F)(F)F)s1)sc1c(O)c(Cl)ccc12` [Example 217] came in with an IC50 of less than 100 nM.

For the compound `COc1ccc(-c2nc3sc4c(S(=O)(=O)O)cccc4c3c(=O)n2Cc2cnco2)c(C2CC2)c1` [Example 12, 2-(2-cyclopropyl-4-methoxyphenyl)-3-(oxazol-5-ylmethyl)-4-oxo-3,4-dihydrobenzo[4,5]thieno[2,3-d]pyrimidine-8-sulfonic acid], the IC50 lay in the range of 1000 to 100000 nM.

`COc1cc(C2CC2)c(-c2nc3sc4c(O)c(Cl)ccc4c3c(=O)n2Cc2cnco2)cc1C1CC1` [Example 107, 7-chloro-2-(2,5-dicyclopropyl-4-methoxyphenyl)-8-hydroxy-3-(oxazol-5-ylmethyl)benzo[4,5]thieno[2,3-d]pyrimidin-4(3H)-one] yielded an IC50 of 100 to 500 nM.

`O=c1c2c(nc(-c3cc(F)c(F)cc3C3CC3)n1Cc1cnn(C(F)(F)F)c1)sc1c(O)c(Cl)ccc12` [Example 211]: the IC50 is less than 100 nM.
